Measurements taken from ChEMBL document CHEMBL1201861, “Genomics of Drug Sensitity in Cancer screening data, Wellcome Trust Sanger Institute”.

Columns and labels:
Experiment in all cases: cells
LB373-MEL-D = assay type: functional, cell-based, Homo sapiens; details: Homo sapiens, LB373-MEL-D;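 note: growth inhibition of the cell line, read out in a cell viability assay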
Description: SANGER: Inhibition of human LB373-MEL-D cell growth in a cell viability assay.

LB2241-RCC = assay type: functional, cell-based, Homo sapiens; details: Homo sapiens, LB2241-RCC;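 note: cell viability assay measuring how strongly the cultured human renal carcinoma line is prevented from growing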
Description: SANGER: Inhibition of human LB2241-RCC cell growth in a cell viability assay.

ACN = assay type: functional, cell-based, Homo sapiens; details: Homo sapiens, ACN;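 note: growth inhibition of the human ACN cell line, read out via cell viability testing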
Description: SANGER: Inhibition of human ACN cell growth in a cell viability assay.

NCI-H526 = assay type: functional, cell-based; details: Homo sapiens;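 note: growth inhibition of the human NCI-H526 cell line, measured by a cell viability assay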
Description: SANGER: Inhibition of human NCI-H526 cell growth in a cell viability assay.

GCT = assay type: functional, cell-based, Homo sapiens; details: Homo sapiens, GCT;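 note: GCT cell line proliferation inhibition, read out with a cell viability assay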
Description: SANGER: Inhibition of human GCT cell growth in a cell viability assay.

OAW-42 = assay type: functional, cell-based, Homo sapiens; details: Homo sapiens, OAW-42;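 note: growth inhibition of OAW-42 cells, read out with a cell viability assay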
Description: SANGER: Inhibition of human OAW-42 cell growth in a cell viability assay.

HCE-4 = assay type: functional, cell-based, Homo sapiens; details: Homo sapiens, HCE-4;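 note: cell viability assay measuring inhibition of growth in the human HCE-4 cell line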
Description: SANGER: Inhibition of human HCE-4 cell growth in a cell viability assay.

ML-2 = assay type: functional, cell-based; details: Homo sapiens;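 note: growth inhibition of ML-2 cells, measured with a cell viability readout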
Description: SANGER: Inhibition of human ML-2 cell growth in a cell viability assay.

KYSE-410 = assay type: functional, cell-based, Homo sapiens; details: Homo sapiens, KYSE-410;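 note: growth inhibition of KYSE-410 cells, measured through a cell viability readout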
Description: SANGER: Inhibition of human KYSE-410 cell growth in a cell viability assay.

RS4-11 = assay type: functional, cell-based; details: Homo sapiens;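 note: growth inhibition of RS4-11 cells, read out by a cell viability assay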
Description: SANGER: Inhibition of human RS4-11 cell growth in a cell viability assay.

NB12 = assay type: functional, cell-based, Homo sapiens; details: Homo sapiens, NB12;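 note: growth inhibition of human NB12 cells, read out by a cell viability assay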
Description: SANGER: Inhibition of human NB12 cell growth in a cell viability assay.

JVM-3 = assay type: functional, cell-based; details: Homo sapiens;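 note: growth inhibition of human JVM-3 cells, read out with a cell viability assay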
Description: SANGER: Inhibition of human JVM-3 cell growth in a cell viability assay.

KARPAS-299 = assay type: functional, cell-based; details: Homo sapiens
Description: SANGER: Inhibition of human KARPAS-299 cell growth in a cell viability assay.

SCH = assay type: functional, cell-based, Homo sapiens; details: Homo sapiens, SCH;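 note: growth inhibition of human SCH cells, read out in a cell viability assay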
Description: SANGER: Inhibition of human SCH cell growth in a cell viability assay.

GB-1 = assay type: functional, cell-based, Homo sapiens; details: Homo sapiens, GB-1;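 note: growth of GB-1 cells judged by a viability assay, IC50 marks the concentration inhibiting growth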
Description: SANGER: Inhibition of human GB-1 cell growth in a cell viability assay.

NCI-H209 = assay type: functional, cell-based; details: Homo sapiens;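 note: growth inhibition of human NCI-H209 cells, measured by a cell viability assay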
Description: SANGER: Inhibition of human NCI-H209 cell growth in a cell viability assay.

Becker = assay type: functional, cell-based, Homo sapiens; details: Homo sapiens, Becker;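 note: growth inhibition of Becker cells, read out with a cell viability assay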
Description: SANGER: Inhibition of human Becker cell growth in a cell viability assay.

DBTRG-05MG = assay type: functional, cell-based, Homo sapiens; details: Homo sapiens, DBTRG-05MG;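 note: cell viability assay measuring growth inhibition of human DBTRG-05MG cells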
Description: SANGER: Inhibition of human DBTRG-05MG cell growth in a cell viability assay.

NCI-H2087 = assay type: functional, cell-based, Homo sapiens; details: Homo sapiens, NCI-H2087;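 note: growth inhibition determined with a cell viability readout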
Description: SANGER: Inhibition of human NCI-H2087 cell growth in a cell viability assay.

HC-1 = assay type: functional, cell-based; details: Homo sapiens;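 note: growth inhibition of HC-1 cells measured by a cell viability assay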
Description: SANGER: Inhibition of human HC-1 cell growth in a cell viability assay.

NCI-H1770 = assay type: functional, cell-based; details: Homo sapiens;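 note: growth inhibition of NCI-H1770 cells determined with a viability readout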
Description: SANGER: Inhibition of human NCI-H1770 cell growth in a cell viability assay.

A2780 = assay type: functional, cell-based, Homo sapiens; details: Homo sapiens, A2780;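 note: growth inhibition of A2780 cells, read out with a cell viability assay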
Description: SANGER: Inhibition of human A2780 cell growth in a cell viability assay.

CAL-62 = assay type: functional, cell-based, Homo sapiens; details: Homo sapiens, CAL-62;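 note: growth inhibition of CAL-62 cells, read out with a cell viability assay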
Description: SANGER: Inhibition of human CAL-62 cell growth in a cell viability assay.

LCLC-97TM1 = assay type: functional, cell-based, Homo sapiens; details: Homo sapiens, LCLC-97TM1;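 note: cell viability assay measuring growth inhibition of human LCLC-97TM1 cells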
Description: SANGER: Inhibition of human LCLC-97TM1 cell growth in a cell viability assay.

P30-OHK = assay type: functional, cell-based; details: Homo sapiens;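 note: growth inhibition of the P30-OHK cell line, read out with a cell viability assay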
Description: SANGER: Inhibition of human P30-OHK cell growth in a cell viability assay.

L-363 = assay type: functional, cell-based; details: Homo sapiens
Description: SANGER: Inhibition of human L-363 cell growth in a cell viability assay.

SF-295 = assay type: functional, cell-based, Homo sapiens; details: Homo sapiens, SF-295; read-out: IC50;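 note: growth inhibition of SF-295 cells, read out with a cell viability assay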
Description: SANGER: Inhibition of human SF295 cell growth in a cell viability assay.

SH-4 = assay type: functional, cell-based, Homo sapiens; details: Homo sapiens, SH-4;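 note: growth inhibition of SH-4 cells, read out with a cell viability assay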
Description: SANGER: Inhibition of human SH-4 cell growth in a cell viability assay.

HuP-T4 = assay type: functional, cell-based, Homo sapiens; details: Homo sapiens, HuP-T4;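 note: cell viability assay measuring how much HuP-T4 cell growth is inhibited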
Description: SANGER: Inhibition of human HuP-T4 cell growth in a cell viability assay.

DK-MG = assay type: functional, cell-based, Homo sapiens; details: Homo sapiens, DK-MG;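 note: growth inhibition of DK-MG cells, read out with a cell viability assay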
Description: SANGER: Inhibition of human DK-MG cell growth in a cell viability assay.

DJM-1 = assay type: functional, cell-based, Homo sapiens; details: Homo sapiens, DJM-1;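 note: growth inhibition of human DJM-1 cells, read out by a cell viability assay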
Description: SANGER: Inhibition of human DJM-1 cell growth in a cell viability assay.

HOS = assay type: functional, cell-based, Homo sapiens; details: Homo sapiens, HOS;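 note: growth inhibition of human HOS cells, read out with a cell viability assay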
Description: SANGER: Inhibition of human HOS cell growth in a cell viability assay.

NCI-H1648 = assay type: functional, cell-based, Homo sapiens; details: Homo sapiens, NCI-H1648;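 note: cell viability assay measuring inhibition of NCI-H1648 cell growth, from the Sanger screening data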
Description: SANGER: Inhibition of human NCI-H1648 cell growth in a cell viability assay.

BV-173 = assay type: functional, cell-based; details: Homo sapiens
Description: SANGER: Inhibition of human BV-173 cell growth in a cell viability assay.

LOX IMVI = assay type: functional, cell-based; details: Homo sapiens
Description: SANGER: Inhibition of human LOXIMVI cell growth in a cell viability assay.

SK-MEL-1 = assay type: functional, cell-based; details: Homo sapiens;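 note: growth inhibition of human SK-MEL-1 cells, read out by a cell viability assay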
Description: SANGER: Inhibition of human SK-MEL-1 cell growth in a cell viability assay.

GAK = assay type: functional, cell-based, Homo sapiens; details: Homo sapiens, GAK;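 note: cell growth inhibition read out by a cell viability assay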
Description: SANGER: Inhibition of human GAK cell growth in a cell viability assay.

GAMG = assay type: functional, cell-based, Homo sapiens; details: Homo sapiens, GAMG;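 note: cell growth inhibition measured by a viability assay in the GAMG human cell line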
Description: SANGER: Inhibition of human GAMG cell growth in a cell viability assay.

KGN = assay type: functional, cell-based, Homo sapiens; details: Homo sapiens, KGN;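 note: growth inhibition of KGN cells, read out with a cell viability assay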
Description: SANGER: Inhibition of human KGN cell growth in a cell viability assay.

NCI-H1155 = assay type: functional, cell-based; details: Homo sapiens;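 note: cell growth inhibition measured by a viability assay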
Description: SANGER: Inhibition of human NCI-H1155 cell growth in a cell viability assay.

KMOE-2 = assay type: functional, cell-based; details: Homo sapiens;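 note: growth inhibition of human KMOE-2 cells, read out with a cell viability assay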
Description: SANGER: Inhibition of human KMOE-2 cell growth in a cell viability assay.

YAPC = assay type: functional, cell-based, Homo sapiens; details: Homo sapiens, YAPC;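 note: growth inhibition of YAPC cells, measured with a cell viability assay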
Description: SANGER: Inhibition of human YAPC cell growth in a cell viability assay.

MV4-11 = assay type: functional, cell-based, MV-4-11; details: Homo sapiens;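 note: cell viability readout measuring growth inhibition of human MV-4-11 cells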
Description: SANGER: Inhibition of human MV-4-11 cell growth in a cell viability assay.

MMAC-SF = assay type: functional, cell-based, Homo sapiens; details: Homo sapiens, MMAC-SF;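 note: growth inhibition of human MMAC-SF cells, read out with a cell viability assay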
Description: SANGER: Inhibition of human MMAC-SF cell growth in a cell viability assay.

SW1417 = assay type: functional, cell-based, Homo sapiens; details: Homo sapiens, SW1417;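 note: growth inhibition of human SW1417 cells, read out with a cell viability assay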
Description: SANGER: Inhibition of human SW1417 cell growth in a cell viability assay.

A-431 = assay type: functional, cell-based, Homo sapiens; details: Homo sapiens, A-431;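 note: growth inhibition of A-431 cells, determined with a cell viability read-out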
Description: SANGER: Inhibition of human A431 cell growth in a cell viability assay.

CAL-72 = assay type: functional, cell-based, Homo sapiens; details: Homo sapiens, CAL-72;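 note: cell viability assay measuring inhibition of proliferation in the CAL-72 cell line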
Description: SANGER: Inhibition of human CAL-72 cell growth in a cell viability assay.

D-247MG = assay type: functional, cell-based, Homo sapiens; details: Homo sapiens, D-247MG
Description: SANGER: Inhibition of human D-247MG cell growth in a cell viability assay.

TE-10 = assay type: functional, cell-based, Homo sapiens; details: Homo sapiens, TE-10;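 note: growth inhibition of TE-10 cells, measured by a cell viability assay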
Description: SANGER: Inhibition of human TE-10 cell growth in a cell viability assay.

J82 = assay type: functional, cell-based; details: Homo sapiens;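 note: growth inhibition of J82 cells, read out with a cell viability assay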
Description: SANGER: Inhibition of human J82 cell growth in a cell viability assay.

KM-H2 = assay type: functional, cell-based; details: Homo sapiens;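 note: growth inhibition of KM-H2 cells, read out by a cell viability assay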
Description: SANGER: Inhibition of human KM-H2 cell growth in a cell viability assay.

MFM-223 = assay type: functional, cell-based, Homo sapiens; details: Homo sapiens, MFM-223
Description: SANGER: Inhibition of human MFM-223 cell growth in a cell viability assay.

ChaGo-K-1 = assay type: functional, cell-based; details: Homo sapiens;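 note: growth inhibition of ChaGo-K-1 cells, read out with a cell viability assay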
Description: SANGER: Inhibition of human ChaGo-K-1 cell growth in a cell viability assay.

MDA-MB-453 = assay type: functional, cell-based, Homo sapiens; details: Homo sapiens, MDA-MB-453
Description: SANGER: Inhibition of human MDA-MB-453 cell growth in a cell viability assay.

Measured: IC50

Cn1cc(C2=C(c3ccc(Cl)cc3Cl)C(=O)NC2=O)c2ccccc21 [SB-216763]
8240 nM: RS4-11
48.9 nM: NCI-H526
6650 nM: GAMG
> 10000 nM: LB373-MEL-D | ACN | GCT | OAW-42 | HCE-4 | ML-2 | KYSE-410 | NB12 | JVM-3 | KARPAS-299 | SCH | GB-1 | NCI-H209 | Becker | DBTRG-05MG | NCI-H2087 | HC-1 | A2780 | CAL-62 | LCLC-97TM1 | P30-OHK | L-363 | SF-295 | SH-4 | HuP-T4 | DK-MG | DJM-1 | HOS | NCI-H1648 | BV-173 | LOX IMVI | SK-MEL-1 | GAK | KGN | NCI-H1155 | KMOE-2 | YAPC | MMAC-SF | SW1417 | A-431 | CAL-72 | D-247MG | TE-10 | J82 | KM-H2 | MFM-223 | ChaGo-K-1 | MDA-MB-453
2700 nM: MV4-11
294 nM: NCI-H1770
6430 nM: LB2241-RCC
